Patent publication US8530493B2, “Indolopyridines as Eg5 kinesin modulators” (4SC AG, priority 2006, dated 2013)

Assays:
[1] = test system: RKO p27 uninduced (proliferating) colon adenocarcinoma cells; experiment: Alamar Blue cell viability assay, RKO p27 uninduced (proliferating); type: cell-based; settings: Homo sapiens, RKOp27, Table B1, anti-proliferative/cytotoxic activity, 72 hours, read-out: −log EC50 RKO p27 uninduced (proliferating) (converted)
Method in brief: (§1)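 Viability read by Alamar Blue fluorescence (ex 544, em 590 nm), normalised to untreated wells, after 72 h, 37° C, 5% CO2 compound exposure in triplicate. Cells were uninduced (no Ponasterone A), proliferating RKO colon carcinoma p27 or p21 subclones in DMEM with 10% FCS; values are −log EC50 (mol/l).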

[2] = test system: RKO p27 induced (arrested) colon adenocarcinoma cells; experiment: Alamar Blue cell viability assay, RKO p27 induced by Ponasterone A (arrested); type: cell-based; settings: Homo sapiens, RKOp27, Table B1, cells arrested by Ponasterone A-induced p27Kip1, 72 hours, read-out: −log EC50 RKO p27 induced (arrested) (converted)
Method in brief: (§2)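 RKOp21 or RKOp27 subclones in DMEM/10% FCS with 10 μM Ponasterone A to induce p21/p27 arrest, seeded 24 h before compound; triplicate 72 h exposure at 37 °C. Alamar Blue fluorescence (544/590 nm) as % of untreated (1% DMSO) cells; EC50 from dose-response curves, reported as −log EC50 (mol/l).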

[3] = test system: RKO p27 or p21 uninduced (proliferating) colon adenocarcinoma cells; experiment: Alamar Blue cell viability assay, RKO p27 or p21 uninduced (proliferating); type: cell-based; settings: Homo sapiens, RKOp27, Table B2, anti-proliferative/cytotoxic activity, 72 hours, read-out: −log EC50 RKO p27 or p21 uninduced (proliferating) (converted)
Method in brief: as §1

[4] = test system: RKO p27 or p21 induced (arrested) colon adenocarcinoma cells; experiment: Alamar Blue cell viability assay, RKO p27 or p21 induced (arrested); type: cell-based; settings: Homo sapiens, RKOp27, Table B2, cells arrested by Ponasterone A, 72 hours, read-out: −log EC50 RKO p27 or p21 induced (arrested) (converted)
Method in brief: as §2

SMILES	EC50 [1] [nM]	EC50 [2] [nM]	EC50 [3] [nM]	EC50 [4] [nM]	melting point [°C]
CCOc1ccc2[nH]c3c(c2c1)C[C@@]1(C)C(=O)N(CCBr)C(=O)N1[C@@H]3c1cccc(O)c1 (racemic) [Example 22, (3aSR,10RS)-2-(2-Bromo-ethyl)-6-ethoxy-10-(3-hydroxy-phenyl)-3a-methyl-3a,4,9,10-tetrahydro-2,9,10a-triaza-cyclopenta[b]fluorene-1,3-dione]	39.8 to 251	≥ 3160	≤ 39.8	≥ 316	250 to 252
CN(C)CCN1C(=O)N2[C@H](c3cccc(O)c3)c3[nH]c4ccc(Cl)cc4c3C[C@@]2(C)C1=O (racemic) [Example 9, (3aSR,10RS)-6-Chloro-2-(2-dimethylamino-ethyl)-10-(3-hydroxy-phenyl)-3a-methyl-3a,4,9,10-tetrahydro-2,9,10a-triaza-cyclopenta[b]fluorene-1,3-dione]	≤ 39.8	≥ 3160			283 to 286
COc1ccc2[nH]c3c(c2c1)C[C@@]1(C)C(=O)N(CCN2CCCC2)C(=O)N1[C@@H]3c1cccc(O)c1 (racemic) [Example 11, (3aSR,10RS)-10-(3-Hydroxy-phenyl)-6-methoxy-3a-methyl-2-(2-pyrrolidin-1-yl-ethyl)-3a,4,9,10-tetrahydro-2,9,10a-triaza-cyclopenta[b]fluorene-1,3-dione]	≤ 39.8	≥ 3160			252 to 255
COc1ccc2[nH]c3c(c2c1)C[C@@]1(C)C(=O)N(CCn2ccnc2)C(=O)N1[C@@H]3c1cccc(O)c1 (racemic) [Example 13, (3aSR,10RS)-10-(3-Hydroxy-phenyl)-2-(2-imidazol-1-yl-ethyl)-6-methoxy-3a-methyl-3a,4,9,10-tetrahydro-2,9,10a-triaza-cyclopenta[b]fluorene-1,3-dione]	39.8 to 251	≥ 3160			321 to 324
COc1ccc2[nH]c3c(c2c1)C[C@@]1(C)C(=O)N(CCN2CCN(C)CC2)C(=O)N1[C@@H]3c1cccc(O)c1 (racemic) [Example 12, (3aSR,10RS)-10-(3-Hydroxy-phenyl)-6-methoxy-3a-methyl-2-[2-(4-methyl-piperazin-1-yl)ethyl]-3a,4,9,10-tetrahydro-2,9,10a-triaza-cyclopenta[b]fluorene-1,3-dione]	39.8 to 251	≥ 3160			224 to 227
